Results reported in US20260250318A1, “COMPOSITIONS AND METHODS FOR CROSSING THE BLOOD BRAIN BARRIER” (VOYAGER THERAPEUTICS, INC., priority 2022, published 2026).

Experiments:
Settings in all cases: synthetic library passage 3, intravenous, relative to wild-type AAV9
[1] = tested on: brain, spinal cord, and DRG of the NHPs; experiment: NGS fold enrichment of synthetic library (passage 3) in NHPs, first cross-species screen; type: in vivo, cynomolgus macaques (Macaca fascicularis)
Procedure, shortened: (§1)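 Fold enrichment versus wild-type AAV9 was derived by NGS of RT-PCR-amplified RNA from nervous tissue, collected e.g. 28 days after IV dosing […]. The library (passage 3) was given to two NHPs aged 2-4 years and to 6-8-week BALB/c and C57Bl/6 mice (n=3 each).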

brain [2] = experiment: NGS fold enrichment of synthetic library (passage 3) in BALB/c mice, first cross-species screen; type: in vivo
Procedure, shortened: as §1

brain [3] = experiment: NGS fold enrichment of synthetic library (passage 3) in C57Bl/6 mice, first cross-species screen; type: in vivo
Procedure, shortened: as §1

[4] = RNA from spinal cord of NHPs, NGS
[5] = RNA from brain of BALB/c mice, NGS
[6] = RNA from brain of C57Bl/6 mice, NGS

Sequence | Fold enrichment over AAV9 in the brain of NHPs ([1]; RNA from brain of NHPs, NGS) [fold] | Fold enrichment over AAV9 in the spinal cord of NHPs [1, 4] [fold] | Fold enrichment over AAV9 in the brain of Mice (BALB/c) (brain [2]; [5]) [fold] | Fold enrichment over AAV9 in the brain of Mice (C57Bl/6) (brain [3]; [6]) [fold] | Fold enrichment over AAV9 in the brain of NHPs ([1]; RNA NGS, brain of NHPs) [fold] | Fold enrichment over AAV9 in the spinal cord of NHPs ([1]; RNA NGS, spinal cord of NHPs) [fold] | Fold enrichment over AAV9 in the brain of Mice (BALB/c) (brain [2]; RNA NGS, brain of BALB/c mice) [fold] | Fold enrichment over AAV9 in the brain of Mice (C57Bl/6) (brain [3]; RNA NGS, brain of C57Bl/6 mice) [fold]
GSSQNQQHDMRLRT | 1.386 | 2.645 | 0.552 | 0.669 |  |  |  | 
GSSQSTGYQPNQQT |  |  |  |  | 1.847 | 3.388 | 0.577 | 0.522
GSSREFHSGQNQQT | 1.203 | 1.591 | 0.474 | 0.688 |  |  |  | 
GSSRVPVSGQNQQT | 1.385 | 13.191 | 0.485 | 0.870 |  |  |  | 
GSSSPGASGQNQQT |  |  |  |  | 1.717 | 1.244 | 0.660 | 1.378
GSSTLVTIGKNQQT |  |  |  |  | 1.592 | 4.316 | 0.819 | 0.917
GSSTRVDSGQNQQT |  |  |  |  | 1.584 | 2.774 | 0.660 | 0.704
GSSTTIVSGQNHQT |  |  |  |  | 1.411 | 0.000 | 0.672 | 0.993
GSSVGSPIGQNQQT |  |  |  |  | 1.584 | 3.574 | 0.706 | 1.059
GSSVGVPSGQNQQT | 1.322 | 4.867 | 1.157 | 0.336 |  |  |  | 
GSSVNSMIGQNQQT | 1.239 | 0.000 | 0.580 | 0.976 |  |  |  | 
GSSVRSLVGQNQQT |  |  |  |  | 1.004 | 3.840 | 0.608 | 0.412
GSSVRYEPKQNQQT |  |  |  |  | 1.063 | 1.564 | 0.501 | 0.450
GSSVSPSSGQNQQT |  |  |  |  | 2.054 | 0.579 | 0.787 | 1.064
GSTGIVSSGQNQQT |  |  |  |  | 1.570 | 0.927 | 1.046 | 2.141
GSTGSHSAGQNQHT |  |  |  |  | 3.717 | 0.285 | 0.850 | 1.190
GSTPAGVGGQNQQT |  |  |  |  | 1.663 | 2.733 | 0.477 | 0.593
